Data on five compounds can be found in PMC10487437 (International Journal of Molecular Sciences, 2023).

Entries after “also recorded” stand apart in the source; their conditions may differ. Where two headings read alike, the source gives them in different places. Square brackets hold non-standard residues; d marks the D form. Peptide text beside a SMILES is read from it. * marks the point of attachment. Nle = CCCC[C@H](N)C(=O)O; Cbz = O=C(OCc1ccccc1)* Bounds are passed on as bounds.

Data set [1] deals with T1, 20S brain proteasome, chymotrypsin-like activity (Mus musculus, UniProt O09061+O55234).
T1 construct: from tissue; host or cells: mouse brain
Kind of data set: Inhibition of 20S brain proteasome hydrolysis of Suc-LLVY-AMC (chymotrypsin-like activity). The class given is biochemical. Conditions: 20 mM Tris-HCl pH 7.5, 1 mM DTT, 1 mM EDTA; [20S] = 50 nM; [Suc-LLVY-AMC] = 50 µM. The source says: (§1) Figure 7 The dependence of 20S proteasome activity on marizomib concentration during hydrolysis of peptide fluorogenic substrates. (a) hydrolysis of model oligoglutamine substrates, Dabcyl-KQ5-PPDE-EDANS (Q5) or Dabcyl-KQ10-PPDE-EDANS (Q10). (b) hydrolysis of standard coumarine-modified peptide substrates. The experimental data are approximated by the function y = A1 + (A2 − A1)/(1 + 10^(LOGx0–x)p), where A1 and A2 are the minimum and maximum values of log10(Ci), respectively, LOGx0 is the logarithm of the EC50 (the concentration giving a response half-way between the upper and lower asymptotes), and p is the Hill coefficient.

The target in data set [2] is T2, 20S brain proteasome, trypsin-like activity (Mus musculus, UniProt P70195+Q9R1P1).
T2 construct: from tissue; host or cells: mouse brain
Kind of data set: Inhibition of 20S brain proteasome hydrolysis of Ac-RLR-AMC (trypsin-like activity). To be noted: [20S] = 50 nM; for IC50: 20 mM Tris-HCl pH 7.5, 1 mM DTT, 1 mM EDTA, [Ac-RLR-AMC] = 50 µM. The format is biochemical.
From the text: as §1

Data set [3] deals with T3, 20S brain proteasome, caspase-like activity (Mus musculus, UniProt P70195+Q60692).
T3 construct: from tissue; host or cells: mouse brain
Kind of data set: Inhibition of 20S brain proteasome hydrolysis of Z-LLE-AMC (caspase-like activity). The class given is biochemical. To be noted: [20S] = 50 nM; for IC50: 20 mM Tris-HCl pH 7.5, 1 mM DTT, 1 mM EDTA, [Z-LLE-AMC] = 50 µM.
From the text: as §1

In data set [4] the test system is T4, 20S brain proteasome.
T4 construct: from tissue; host or cells: mouse brain
The experiment in a line: Inhibition of 20S brain proteasome hydrolysis of oligoglutamine-containing FRET substrates. Conditions: [20S] = 50 nM; for IC50: 20 mM Tris-HCl pH 7.5, 1 mM DTT, 1 mM EDTA. The class given is biochemical, mouse.
From the text: as §1

Data set [5] has as its system T5, 20S proteasome from murine brain.
T5 construct: from tissue; host or cells: mouse brain
Kind of data set: Specific peptidase activity of 20S proteasome with additives (Table S1). The class given is biochemical, mouse. Conditions: 20S plus additive: 0.5 µM Bortezomib, 0.1 µM MG132, 0.02% SDS or 11S (1:2, mole:mole); 20S alone 2.37 ± 0.13; means ± SEM of three independent experiments run in duplicate. The source says: Characterization of puriﬁed proteasomes
teasomes. […] To conﬁrm that
cathepsin B [48] (Table S1).
reaction mixture for both 20S and 26S.
Table S1. Peptidase activity of the samples of 20S and 26S proteasome from murine brain.
The molar ratio between the proteasome

Data set [6] concerns 26S proteasome. Kind of data set: 26S proteasome isolated from mouse brains, in Tris-HCl buffer pH = 7.5 with 5 mM ATP-MgCl2. Conditions: 37 °C, up to 72 h.
Data set [7] deals with 20S+11S. The experiment in a line: 20S proteasome with 11S regulator, both isolated from mouse brains, in Tris-HCl buffer pH = 7.5. To be noted: 37 °C, up to 72 h.
Data set [8] concerns 20S proteasome. The experiment in a line: 20S proteasome isolated from mouse brains, in 50 mM Tris-HCl, 1 mM EDTA, 1 mM DTT, 10% glycerol, pH = 7.5. To be noted: 37 °C, up to 72 h.
Data set [9] deals with 26S+11S. Kind of data set: 26S proteasome with 11S regulator, both isolated from mouse brains, in Tris-HCl buffer pH = 7.5 with 5 mM ATP-MgCl2. To be noted: 37 °C, up to 72 h.
Setting [10] is: fit of dose-response curve (Figure 7), substrate 50 µM.
[11] abbreviates: fit of dose-response curve (Figure 7).

The IC50 is the concentration that gives 50% inhibition. `C[C@@]12OC(=O)[C@]1([C@@H](O)[C@@H]1C=CCCC1)NC(=O)[C@@H]2CCCl` [Marizomib]: the half-maximal inhibitory concentration (IC50) was found to be 9.3 ± 1.5 nM in data set [1]; 111 ± 8 nM in [2]; 610 ± 40 nM in data set [3]; 323 ± 15 nM in [4] (substrate Dabcyl-KQ5 PPD-EDANS, read-out: IC50 of Dabcyl-KQ5 PPD-EDANS hydrolysis by 20S brain proteasome); 480 ± 20 nM in data set [4] (substrate Dabcyl-KQ10 PPD-EDANS, read-out: IC50 of Dabcyl-KQ10 PPD-EDANS hydrolysis by 20S brain proteasome). In [2] (setting [10]), the “Hill coefficient, inhibition of Ac-RLR-AMC hydrolysis” value is reported as “(−1.51)”. Moreover, the “Hill coefficient, inhibition of Z-LLE-AMC hydrolysis” value in data set [3] (setting [10]) is “(−1.1)”. Besides, the “Hill coefficient, inhibition of Dabcyl-KQ5 PPD-EDANS hydrolysis” value in data set [4] (setting [11]) is given as “(−0.69)”. Besides, in [4] (setting [11]), the “Hill coefficient, inhibition of Dabcyl-KQ10 PPD-EDANS hydrolysis” value is “(−0.39)”.
In the case of `CC(C)C[C@@H](C=O)NC(=O)[C@H](CC(C)C)NC(=O)[C@H](CC(C)C)NC(=O)OCc1ccccc1` [Z-LLL-CHO (MG132)] (Cbz-Leu-Leu-Leu-aldehyde), the half-maximal inhibitory concentration (IC50) came to 12 ± 3 nM in data set [1]; 2800 ± 300 nM in data set [2]; 155 ± 5 nM in data set [3]; 50000 ± 6000 nM in data set [4] (substrate Dabcyl-KQ5 PPD-EDANS, n.d. = not detected, read-out: IC50 of Dabcyl-KQ5 PPD-EDANS hydrolysis by 20S brain proteasome); 72000 ± 8000 nM in data set [4] (substrate Dabcyl-KQ10 PPD-EDANS, n.d. = not detected, read-out: IC50 of Dabcyl-KQ10 PPD-EDANS hydrolysis by 20S brain proteasome). Further, in [5], the “Specific peptidase activity using Suc-LLVY-AMC” value turned out to be 0.093 ± 0.003 nM/min/µg.
For the compound `CCCC[C@H](NC(=O)[C@@H]1CCCN1C(=O)OCc1ccccc1)C(=O)N[C@H](C=O)CC(=O)O` [Z-P-nLeu-D-CHO] (Cbz-Pro-[Nle]-Asp-aldehyde), the values for the IC50 in data set [1], in [2] and in [3] were 100000 ± 10000 nM, over 150000 nM and 5100 ± 300 nM, respectively.
As to Dabcyl-KQ5GD-EDANS, the cleaved bond result in [6] is on record as “Q2-Q3, major; also recorded: Q4-Q5, major”; in [7], “Q2-Q3, major; also recorded: Q4-Q5, major”; in [8], “Q2-Q3, major; also recorded: Q4-Q5, major”; in [9], “Q2-Q3, major; also recorded: Q4-Q5, major”.
Regarding Dabcyl-KQ10PPD-EDANS, the cleaved bond entry in data set [6] is recorded as “Q2-Q3, major; also recorded: Q3-Q4, major”; in data set [7], “Q2-Q3, major; also recorded: Q3-Q4, major”; in data set [8], “Q3-Q4, major, 2 h; also recorded: Q2-Q3, major, 2 h”; in [9], “Q2-Q3, major; also recorded: Q3-Q4, major”.
